Assay results taken from patent US20130029970A1 (priority 2009, published 2013).

Key:
[1] = target: T1, recombinant human cannabinoid receptor CB2 (Homo sapiens, UniProt P34972); experiment: Cannabinoid receptor radioligand binding assay, [3H]-CP 55,940 displacement, hCB2
T1 construct: (cDNA clone) CNR0200000
Summary of the method: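 Membranes from hCB2-transfected cells, prepared by 1000×g then 40,000×g centrifugation, resuspended in 20 mM HEPES pH 7.4, 5 mM MgCl2, 1 mM EDTA, 10% sucrose.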

[2] = target: T2, human CB2 receptors (Homo sapiens, UniProt P34972); experiment: cAMP assay in HEK-293 cells, hCB2 agonist; assay type: cell-based; settings: inhibition of forskolin-stimulated cAMP, HEK-293 cells; read-out: hCB2 EC50 (cAMP ag)
T2 construct: (cDNA clone) CNR0200000
T2 sequence (P34972 whole entry): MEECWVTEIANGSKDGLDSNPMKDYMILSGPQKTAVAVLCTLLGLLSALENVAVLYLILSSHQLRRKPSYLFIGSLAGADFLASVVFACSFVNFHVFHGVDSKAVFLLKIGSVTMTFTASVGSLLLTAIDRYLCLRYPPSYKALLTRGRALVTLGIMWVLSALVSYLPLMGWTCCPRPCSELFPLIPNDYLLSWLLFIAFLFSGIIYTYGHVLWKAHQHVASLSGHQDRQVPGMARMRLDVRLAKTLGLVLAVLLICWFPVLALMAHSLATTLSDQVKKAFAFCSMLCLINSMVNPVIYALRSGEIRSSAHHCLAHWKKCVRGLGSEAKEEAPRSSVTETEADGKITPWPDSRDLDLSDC
Summary of the method: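 HEK-293 cells stably expressing human CB2, suspended at 1,500,000 cells/mL in HBSS with 10 mM HEPES and 0.1% fatty-acid-free BSA, exposed to test compound plus forskolin (90 uM in the 3× compound solution) for 30 min at 37° C.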

[3] = target: T3, human CB1 receptors (Homo sapiens, UniProt P21554); experiment: cAMP assay in HEK-293 cells, hCB1 agonist; assay type: cell-based; settings: inhibition of forskolin-stimulated cAMP, HEK-293 cells
T3 construct: (cDNA clone) CNR01L000
T3 sequence (P21554 whole entry): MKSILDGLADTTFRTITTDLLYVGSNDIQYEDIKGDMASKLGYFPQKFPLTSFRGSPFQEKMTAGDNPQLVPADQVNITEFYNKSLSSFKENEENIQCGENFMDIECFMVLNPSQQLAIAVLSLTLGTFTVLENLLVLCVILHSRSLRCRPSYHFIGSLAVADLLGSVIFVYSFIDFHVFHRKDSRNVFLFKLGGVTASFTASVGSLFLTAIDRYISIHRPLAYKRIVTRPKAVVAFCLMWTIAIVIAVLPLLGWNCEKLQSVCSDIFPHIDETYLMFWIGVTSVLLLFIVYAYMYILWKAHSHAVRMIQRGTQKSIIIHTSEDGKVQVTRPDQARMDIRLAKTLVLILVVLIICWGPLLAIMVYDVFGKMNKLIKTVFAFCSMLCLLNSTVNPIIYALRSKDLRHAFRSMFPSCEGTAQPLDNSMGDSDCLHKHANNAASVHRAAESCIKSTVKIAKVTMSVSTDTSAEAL
Summary of the method: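 Stable hCB1 HEK-293 cells suspended in HBSS with 10 mM HEPES and 0.1% fatty acid-free BSA, incubated 30 min at 37° C. with compound plus forskolin (90 uM in the 3× compound solution). Lysed cAMP measured by enzyme-fragment kit; EC50 = 50% inhibition of forskolin-stimulated cAMP (forskolin maximum = 100%), sigmoidal fit.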

T1 sequence (P34972 whole entry): as the sequence (P34972 whole entry) above

SMILES: COc1ccc(C(=O)c2cc3cc(C)n(CCN4CCC(OC)C4)c3s2)cn1 (stereo not drawn) [Compound 147, (6-methoxypyridin-3-yl)(6-(2-(3-methoxypyrrolidin-1-yl)ethyl)-5-methyl-6H-thieno[2,3-b]pyrrol-2-yl)methanone]
- IC50 [1]: 1 to 10 µM
- EC50 [2]: 0.1 to 1 µM
- hCB1 EC50 (cAMP ag, nM) [3]: NS (NS means “Not Significant,” which means less than 30% agonist activity when compared to the positive control.)
